In patent publication US6352982B1, “4,1-benzoxazepines, their analogues, and their use as somatostatin agonists” (Takeda Chemical Industries, Ltd., priority 1997, dated 2002):
Where a name gives a salt, the structure may show the parent alone.

Legend:
Experiment in all cases: Binding inhibition of 125I-somatostatin, CHO cell membrane fraction
[1] = molecular target: T1, human somatostatin receptor SSTR1 (Homo sapiens, UniProt P30872); settings: 125I-somatostatin binding, 25° C. for 60 minutes, read-out: Activities for human somatostatin receptor (IC50 value) SSTR1
T1 construct: expressed in transfected cells; host or cells: CHO (dhfr-) cells, strain SSTR1-8-3
Protocol: (§1) A human somatostatin receptor expression CHO cell strain, SSTR1-8-3, SSTR2-HS5-9, SSTR3-15-19, SSTR4-1-2 or SSTR5-32-4 (10^9), was suspended in a phosphate buffered saline containing 5mM of EDTA (PBS-EDTA). The suspension was centrifuged. To the cell pellet was added 10 ml of a homogenation buffer solution for cells (10 mM NaHCO3, 5 mM EDTA, pH=7.5). The mixture was homogenized by a Politron homogenizer and centrifuged at 400×g for 15 minutes. The supernatant obtained was farther centrifuged at 100,000×g for an hour to obtain a precipitate of the membrane fraction. The precipitate was suspended in 2 ml of a buffer solution for assay ([…], 0.1% of BSA (bovine serum albumin) and […], 1 μ/ml of pepstatin, 20 μg/ml of leupeptin, 10 μg/ml of phosphoramide, pH=7.5). The suspension was centrifuged at […] for an hour. The membrane fraction recovered as precipitate was suspended again in 20 ml of buffer solution for assay. The suspension was placed in tubes and stored at −80° C. The suspension was thawed when used, and used at every use.
(§2) The membrane fraction prepared in Example 1 was diluted with a buffer solution for assay to adjust the concentration to 3 μg/ml. The diluate was placed in tubes each in quantity of 173 μl. To this were simultaneously added 2 μl of a solution of a compound in DMSO and 25μl of a 200pM radioisotope-labeled somatostatin (^125I-somatostatin: Amersham) solution. For measurement of the maximum binding, a reaction mixture added with 2 μl of DMSO and 25μl of a 200pM ^125I-somatostatin solution was prepared. For measurement of non-specific binding, a reaction mixture added with 2 μl of a 100 μM somatostatin solution diluted in DMSO and 25 μl of a 200pM ^125I-somatostatin solution was prepared at the same time. The mixtures were allowed to react at 25° C. for 60 minutes. Then, the reaction mixture was filtered by aspiration using a GF/B glass fiber filter paper (Whatman) treated with polyethylenimine. After filtration, the radioactivity of 125I-somatostatin remaining on the filter paper was measured by a γ-counter.
(§3) The binding rate (%) of each compound was calculated by the formula: […]
(§4) (where PBM: Percent maximum Binding, B: radioactivity when a compound was added, Bo: maximum binding radioactivity, NSB: non-specific binding radioactivity). The binding rates were calculated by changing the concentrations of the compound to obtain the 50% inhibiting concentration of the compound (IC50 value) by the Hil l plots.
(§5) The activities (IC50 value, μM) of the compounds for each human somatostatin receptor obtained by the above method are shown in the following Table 5.

[2] = molecular target: T2, human somatostatin receptor SSTR2 (Homo sapiens, UniProt P30874); settings: 125I-somatostatin binding, 25° C. for 60 minutes, read-out: Activities for human somatostatin receptor (IC50 value) SSTR2
T2 construct: expressed in transfected cells; host or cells: CHO (dhfr-) cells, strain SSTR2-HS5-9
Protocol: as §1, §2, §3, §4, §5

[3] = molecular target: T3, human somatostatin receptor SSTR3 (Homo sapiens, UniProt P32745); settings: 125I-somatostatin binding, 25° C. for 60 minutes, read-out: Activities for human somatostatin receptor (IC50 value) SSTR3
T3 construct: expressed in transfected cells; host or cells: CHO (dhfr-) cells, strain SSTR3-15-19
Protocol: as §1, §2, §3, §4, §5

[4] = molecular target: T4, human somatostatin receptor SSTR4 (Homo sapiens, UniProt P31391); settings: 125I-somatostatin binding, 25° C. for 60 minutes, read-out: Activities for human somatostatin receptor (IC50 value) SSTR4
T4 construct: expressed in transfected cells; host or cells: CHO (dhfr-) cells, strain SSTR4-1-2
Protocol: as §1, §2, §3, §4, §5

[5] = molecular target: T5, human somatostatin receptor SSTR5 (Homo sapiens, UniProt P35346); settings: 125I-somatostatin binding, 25° C. for 60 minutes, read-out: Activities for human somatostatin receptor (IC50 value) SSTR5
T5 construct: expressed in transfected cells; host or cells: CHO (dhfr-) cells, strain SSTR5-3-2-4 (also printed SSTR5-32-4)
Protocol: as §1, §2, §3, §4, §5

T5 sequence (P35346 whole entry): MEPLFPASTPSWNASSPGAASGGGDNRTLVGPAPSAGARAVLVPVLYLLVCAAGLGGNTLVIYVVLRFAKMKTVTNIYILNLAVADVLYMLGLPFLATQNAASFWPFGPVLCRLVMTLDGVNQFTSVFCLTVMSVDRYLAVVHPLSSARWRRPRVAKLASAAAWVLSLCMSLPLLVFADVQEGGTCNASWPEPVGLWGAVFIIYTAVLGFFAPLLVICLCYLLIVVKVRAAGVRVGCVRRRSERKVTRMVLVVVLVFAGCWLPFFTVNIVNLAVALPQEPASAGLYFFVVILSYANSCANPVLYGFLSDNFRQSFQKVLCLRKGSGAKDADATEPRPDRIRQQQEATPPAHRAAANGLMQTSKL
T1 sequence (P30872 whole entry): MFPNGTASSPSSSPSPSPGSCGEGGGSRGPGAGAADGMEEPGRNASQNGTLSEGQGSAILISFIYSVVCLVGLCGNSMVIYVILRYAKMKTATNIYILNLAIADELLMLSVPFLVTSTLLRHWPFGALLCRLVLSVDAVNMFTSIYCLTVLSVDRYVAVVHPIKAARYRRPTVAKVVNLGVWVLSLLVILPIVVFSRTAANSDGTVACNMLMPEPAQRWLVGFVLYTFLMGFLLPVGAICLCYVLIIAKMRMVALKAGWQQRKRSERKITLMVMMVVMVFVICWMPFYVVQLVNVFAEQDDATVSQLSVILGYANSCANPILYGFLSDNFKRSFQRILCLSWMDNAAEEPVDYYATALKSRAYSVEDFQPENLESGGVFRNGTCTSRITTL
T3 sequence (P32745 whole entry): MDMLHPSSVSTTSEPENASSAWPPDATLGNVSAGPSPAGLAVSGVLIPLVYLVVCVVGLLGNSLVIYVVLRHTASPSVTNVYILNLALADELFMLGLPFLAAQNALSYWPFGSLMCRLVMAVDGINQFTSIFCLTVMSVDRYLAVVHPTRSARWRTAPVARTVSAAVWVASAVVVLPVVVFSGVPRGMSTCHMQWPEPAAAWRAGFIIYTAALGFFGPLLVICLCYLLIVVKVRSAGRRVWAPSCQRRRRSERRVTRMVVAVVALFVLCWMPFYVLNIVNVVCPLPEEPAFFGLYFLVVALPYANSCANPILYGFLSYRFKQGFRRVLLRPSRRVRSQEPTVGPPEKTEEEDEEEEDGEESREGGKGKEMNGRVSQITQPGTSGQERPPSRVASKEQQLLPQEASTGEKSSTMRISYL
T4 sequence (P31391 whole entry): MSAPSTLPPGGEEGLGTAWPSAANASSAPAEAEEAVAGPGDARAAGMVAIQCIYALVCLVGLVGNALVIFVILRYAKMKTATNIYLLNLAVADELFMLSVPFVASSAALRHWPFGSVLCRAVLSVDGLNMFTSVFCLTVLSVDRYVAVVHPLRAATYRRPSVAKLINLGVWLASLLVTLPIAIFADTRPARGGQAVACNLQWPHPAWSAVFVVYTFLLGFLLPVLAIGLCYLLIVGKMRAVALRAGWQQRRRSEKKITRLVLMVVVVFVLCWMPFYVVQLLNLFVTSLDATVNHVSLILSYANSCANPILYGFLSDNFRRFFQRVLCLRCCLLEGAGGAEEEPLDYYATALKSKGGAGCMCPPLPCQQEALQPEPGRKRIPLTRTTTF
T2 sequence (P30874 whole entry): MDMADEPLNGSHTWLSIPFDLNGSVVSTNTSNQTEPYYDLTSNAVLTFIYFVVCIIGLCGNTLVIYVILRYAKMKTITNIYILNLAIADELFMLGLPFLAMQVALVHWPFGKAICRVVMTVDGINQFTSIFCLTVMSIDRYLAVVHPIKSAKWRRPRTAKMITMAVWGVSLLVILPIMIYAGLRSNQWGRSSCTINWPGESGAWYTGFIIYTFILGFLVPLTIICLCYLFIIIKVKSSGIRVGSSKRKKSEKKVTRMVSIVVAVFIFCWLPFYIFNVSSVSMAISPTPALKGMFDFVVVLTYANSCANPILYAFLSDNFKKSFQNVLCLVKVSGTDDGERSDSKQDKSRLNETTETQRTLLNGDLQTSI

| SMILES | IC50 [1] | IC50 [2] | IC50 [3] | IC50 [4] | IC50 [5] |
| --- | --- | --- | --- | --- | --- |
| CC(C)(C)CN1C(=O)[C@H](CC(=O)NCc2ccccc2F)O[C@@H](c2cccc(CN)c2)c2cc(Cl)ccc21 [Example 25, (3S,5S)-N-(2-fluorobenzyl)-5-(3-aminomethylphenyl)-7-chloro-1-neopentyl-2-oxo-1,2,3,5-tetrahydro-4,1-benzoxazepine-3-acetamide•monohydrochloride] | 8000 nM | 6000 nM | 300 nM | 4000 nM | 7 nM |
| CC(C)(C)CN1C(=O)[C@@H](CC(=O)NCc2ccccc2F)O[C@H](c2cccc(CN)c2)c2cc(Cl)ccc21 [Example 26, (3R,5R)-N-(2-fluorobenzyl)-5-(3-aminomethylphenyl)-7-chloro-1-neopentyl-2-oxo-1,2,3,5-tetrahydro-4,1-benzoxazepine-3-acetamide•monohydrochloride] | 10000 nM | > 10000 nM | 7000 nM | 4000 nM | 600 nM |
| NCc1ccc(C2OC(CC(=O)NCc3ccccc3F)C(=O)N(Cc3ccc(-c4ccccc4)cc3)c3ccc(Cl)cc32)cc1 (stereo not drawn) [Example 87, 3,5-Trans-N-(2-fluorobenzyl)-5-(4-aminomethylphenyl)-1-(4-biphenylmethyl)-7-chloro-2-oxo-1,2,3,5-tetrahydro-4,1-benzoxazepine-3-acetamide•monohydrochloride] | 800 nM | 800 nM | 20 nM | 300 nM | 1 nM |
| COc1ccc(CN2C(=O)C(CC(=O)NCc3ccccc3F)OC(c3ccc(CN)s3)c3cc(Cl)ccc32)cc1 (stereo not drawn) [Example 91, 3,5-Trans-N-(2-fluorobenzyl)-5-(2-aminomethylthiophen-5-yl)-7-chloro-1-(4-methoxybenzyl)-2-oxo-1,2,3,5-tetrahydro-4,1-benzoxazepine-3-acetamide•monohydrochloride] | > 1000 nM | > 1000 nM | 40 nM | 1000 nM | 7 nM |
| CC(C)(N)c1cccc(C2OC(CC(=O)NCc3ccccc3F)C(=O)N(Cc3ccc(-c4ccccc4)cc3)c3ccc(Cl)cc32)c1 (stereo not drawn) [Example 93, 3,5-Trans-N-(2-fluorobenzyl)-5-[3-[(1-amino-1-methyl)ethyl]phenyl]-1-(4-biphenylmethyl)-7-chloro-2-oxo-1,2,3,5-tetrahydro-4,1-benzoxazepine-3-acetamide•monohydrochloride] | 900 nM | 500 nM | 4 nM | 200 nM | 9 nM |
